Test [1] relates to recombinant Keap1 mutant proteins. Kind of test: Pull-down of recombinant Keap1 mutants with PBA-Sepharose 4B. The class given is binding, human. As to conditions: cysteine to serine mutants. Here is the method: PBA-Sepharose 4B beads were created by dissolving PBA in coupling buffer (100 mM NaHCO3, pH 8.3, 0.5 M NaCl). After washing with 1 mM HCl medium, Sepharose 4B beads were mixed with PBA coupling buffer and slowly rotated overnight at 4 °C. Excess PBA was washed away with coupling buffer and any remaining active groups were blocked with 0.1 M Tris-HCl buffer (pH 8.0) for 2 h. The medium was then washed with 0.1 M acetate buffer (pH 4.0) containing 0.5 M NaCl followed by a wash with 0.1 M Tris-HCl (pH 8.0) that also contained 0.5 M NaCl. PBA-Sepharose 4B beads were ready for use in the pull-down assay. The RAW264.7 cellular supernatant fraction (600 µg) was incubated with either PBA-Sepharose 4B or Sepharose 4B as a negative control in reaction buffer (50 mM Tris-HCl, pH 7.5, 5 mM EDTA, 150 mM NaCl, 1 mM DTT, 0.01% NP-40, 2 µg/mL of BSA, 0.02 mM PMSF, 1 × protease inhibitor cocktail). After incubation with gentle rocking overnight at 4 °C, the beads were washed five times with wash buffer (50 mM Tris-HCl, pH 7.5, 5 mM EDTA, 150 mM NaCl, 1 mM DTT, 0.01% NP-40, 0.02 mM PMSF) and proteins bound to the beads were analyzed by immunoblotting assay with a Keap1 antibody.
The mutant plasmid DNA was obtained by PCR. The PCR products were cleaved by DpnI restriction enzymes. […] Colonies were evaluated by colony PCR and sequenced. […]

The subject of another test is Nrf2. Kind of test: Nrf2 nuclear translocation. The class given is cell-based, rat. As to conditions: PBA for 6 h. Here is the method:
Total protein was isolated from H9c2 cells, primary mouse cardiomyocytes, RAW264.7 cells and heart tissue using 1X RIPA buffer containing phosphatase and proteinase inhibitors at 4 °C. After measurement of the concentration, the cell lysates were separated by sodium dodecyl sulphate polyacrylamide gel electrophoresis (SDS-PAGE) and transferred to polyvinylidene fluoride (PVDF) membranes. The membranes were blocked in Tris-buffered saline-Tween 20 (TBST) buffer with 5% BSA for 1 h and incubated with primary antibodies (1:1000 dilution) overnight at 4 °C. After the membranes was washed by TBST buffer for three times, they were incubated with horseradish peroxidase (HRP)-conjugated secondary mouse or rabbit antibodies (1:3,000 dilution) at room temperature (RT) for 1.5 h and then detected by SuperEnhanced chemiluminescence (ECL) reaction reagents (GBCBIO Technologies Inc., Guangzhou, Guangdong, China). […] After letting the membranes stand for 1-2 min, the bands of the respective proteins were detected with the exposure time of 10 ~60 s.
According to previous experiences, Nrf2 nucleus translocation could be detected at 6 h. […] After several washes with PBS, the bound antibodies were detected by Alexa Fluor 594-conjugated goat anti-rabbit or Alexa Fluor 488-conjugated goat anti-mouse IgG secondary antibody at RT for 1 h. […]

Test [2] relates to Nrf2 knockdown H9c2 cells. The test can be described thus: OGD/R viability in Nrf2 siRNA knockdown H9c2. The class given is cell-based, rat. The settings on record: Nrf2 siRNA 24 h, H9c2, MTT. How it is done:
Cell viability was determined by MTT assays. PBA was prepared to a stock solution dissolved in dimethyl sulfoxide (DMSO). RAW264.7, H9c2 cells, primary mouse cardiomyocytes were treated with different doses of PBA, and DMSO only as control for 48 h for the toxicity. In addition, H9c2 cells or primary mouse cardiomyocytes were treated with the indicated doses of PBA, diazoxide as positive control, DMSO only as control, then cultured with or without OGD/R treatment. At the end of the experiments, MTT was added into each well at the concentration of 0.5 mg/ml, and incubated at 37 °C for 4 h. After removal of the supernatant, 150 μL of DMSO was added to solubilize the formazan products. And the solution was measured at the absorbance of 490 nm by a spectrophotometer (Thermo Fisher Scientific, MA, USA). The results of the MTT assay in all groups were normalized to the control group with DMSO only treatment.
For transient transfection, HiPerFect Transfection Reagent (Qiagen, German) was used according to the manufacturer's instructions. Nrf2 siRNA (h) (sc-156128) and control siRNA-A (sc-37007) were bought from Santa Cruz Biotechnology. Briefly, H9c2 cells were seeded in 96-well plate at the density of 2x10^4 cells per well or 12-well plate at the density of 3x10^5 cells per well. According to preliminary results, transfection with siRNA for 24 h could get a better knockdown effect. […]

As to `C=C(COC(=O)C=Cc1ccc(O)c(O)c1)C(O)COC1OC(CO)C(O)C(O)C1O` (stereo not shown) [PBA, pubescenoside A], in test [1], the “binding of Keap1 mutants of Cys434, Cys77, Cys23 and Cys38 (pull-down)” value is given as “lost the capacity to bind”; the “binding of other Keap1 mutants (pull-down)” value is recorded as “retained their high binding affinity”. For the same compound, the “Nrf2 translocation into nucleus” value with Nrf2 was “significantly promoted”. Also, in test [2], the “cardioprotection against OGD/R after Nrf2 knockdown” value is listed as “blocked”.

For the origin of these results see paper PMC7738871, “Covalent modification of Keap1 at Cys77 and Cys434 by pubescenoside a suppresses oxidative stress-induced NLRP3 inflammasome activation in myocardial ischemia-reperfusion injury” (Theranostics, 2021).
